{"source": "patent US9132164B2", "about": "“Pharmaceutical compositions comprising angiotensin-(1-9), derivatives thereof, or a vector expressing ACE2, useful for treating cardiovascular, pulmonary, cerebral, and/or renal remodeling” (PONTIFICIA UNIVERSIDAD CATOLICA DE CHILE, priority 2008, dated 2015)", "key": {"[1]": {"experiment": "Plasma angiotensin levels in infarcted rats treated with angiotensin-(1-9) with or without A779", "type": "in vivo, Sprague Dawley rats", "details": "with vs without A779, p<0.01", "experimental": "(§1) For studies with angiotensin-(1-9) 28 rats were randomly distributed into two groups and underwent a sham surgery (n=8) or infarction following left coronary artery ligation (n=20). The infarcted rats were randomized to receive the either the carrier, angiotensin-(1-9) (463 ng/kg of body weight for 14 days) or angiotensin-(1-9) plus A779 (463 ng of angiotensin-(1-9)/kg of body weight/min and 100 ng of A779/kg/min for 14 days) by means of osmotic mini-pumps (ALZET) implanted into the jugular under sedation with ketamine-HCl/xilazine (35/7 mg/kg intraperitoneal, respectively).\nPlasma angiotensin and bradykinin levels were determined as described by (Ocaranza et al, Hypertension 48:572-8, 2006; Ocaranza et al, Life Sci. 78:1535-42, 2005; Campbell et al, J. Mol. Cell. Cardiol. 27:1545-60, 1995). Briefly, rats were anesthetized with a combination of ketamin (125 mg/kg) and xilazin (12.5 mg/kg) administered via intraperitoneal injection. […] Plasmas were stored at −80° C. until their extraction using C18 Sep-Pak cartridges, and peptides were acetylated. Acetylated angiotensin II, angiotensin I, angiotensin-(1-7), angiotensin-(1-9), bradykinin-(1-7) and bradykinin-(1-9) were separated by high performance liquid chromatography (HPLC) and were detected by radioimmunoassay."}, "[2]": {"system": "left ventricle of infarcted rats", "experiment": "ANF mRNA (RT-PCR) and β-MHC protein (Western blot) in left ventricle of infarcted rats", "type": "in vivo, Sprague Dawley rats", "details": "two weeks via osmotic mini-pumps, p<0.01", "experimental": "as §1\n(§2) The extent of left ventricular hypertrophy was calculated by the relationship among left ventricular weight (LVW), body weight (BW), mRNA relative levels of the auricular natriuretic factor (ANF), left ventricular protein content (LVP), and protein levels of β-myosinheavy chain (β-MHC) as described in (Ocaranza et al, Hypertension 48:572-8, 2006).\nIn animal models as described in example 1, the heart was removed and RNA was purified according to the procedure described in example 3. Later, the amount of ANF mRNA was determined by reverse transcription followed by polymerization chain reaction (RT-PCR) (see example 3). […] Panel B) illustrates RT-PCRs quantification. **p<0.01 vs sham; ^##p<0.01 vs MI. […]"}, "[3]": {"system": "Neonatal Sprague-Dawly rat cardiomyocytes", "experiment": "Hypertrophy of cultured cardiomyocytes induced by norepinephrine or IGF-1", "type": "cell-based", "details": "co-addition of 10 or 100 μM", "experimental": "Neonatal Sprague-Dawly rat cardiomyocytes were isolated as described by (Foncea et al, J. Biol. Chem. 272:19115-24, 1997). Every study is in accordance with the guide for the care and use of laboratory animals Published by “U.S. National Institutes of Health” (NIH publication No 85-23, revised 1985) and was approved by our Institutional Ethics Committee. Cell cultures were >95% pure. Cardiomyocytes were plated at 70% final density in gelatin coated plates and kept at 37° C. in a 5% CO2/95% air moisturized atmosphere for 24 h in DMEM/M199 (4:1) with 10% bovine fetal serum and 5% calf serum. […]\nCells were grown over slides and were incubated in a buffer conferring stability to the cytoskeleton (10 mM MES pH 6.0, 150 mM NaCl, 5 mM EDTA, 3% sucrose, 5 mM MgCl2) for 5 min. Then, cells were fixed and permeabilized using methanol for 10 min. Non specific binding sites were blocked for 1 h with phosphate-buffered saline (PBS) supplemented with 3% bovine serum albumin. […] Cellular staining was evaluated in a confocal microscope (Carl Zeiss Axiovert 135, LSM Microsystems). Cardiomyocyte size was determined in cells fixed with 4% paraformaldehyde for 10 min and permeabilized with methanol for 10 min. […] The size of at least 100 cells from randomly selected fields was determined using Image J (NIH) software. […]"}, "[4]": {"system": "heart cardiomyocytes of infarcted rats", "experiment": "Cardiomyocyte area and perimeter, cardiac tissue morphometry of infarcted rats", "type": "in vivo, Sprague Dawley rats", "details": "two weeks via osmotic mini-pumps, p<0.01", "experimental": "as §1\nHeart mid-ventricle transverse slices (10 μm) were embedded in paraffin, stained with hematoxylin and eosin, and were examined by light microcopy (×20). The size of cardiomyocytes was determined as described by Nakamura et al (Circulation 98:794-9, 1998). Briefly, cell images visualized on a video recorded attached to the microscope were projected in a monitor and they were plotted. The area and perimeter were determined using Image J. software. […] At least 70 cells per animal were measured.\nIn animal models as described in example 1, heart was removed, histological cuts were made and a morphologic and morphometric analysis was performed on cardiac tissue according to the procedure described in example 3. […] In panel B), quantification is illustrated. **p<0.01 vs sham; ^##p<0.01 vs MI."}, "[5]": {"system": "rats with myocardial infarction (left coronary artery ligation)", "experiment": "Effects of angiotensin-(1-9) administration on hemodynamic parameters and left ventricle weight in infarcted rats", "type": "in vivo, Sprague Dawley rats", "details": "infarcted rats (MI), osmotic mini-pump 14 days, average ± SEM", "experimental": "as §1\nSystolic blood pressure (SBP) was determined by using the “tail-cuff” method by investigators who were blind to the treatment group. Left ventricle function was determined by transthoracic bidimensional echocardiography using a Sonos 5000 equipped with a 5 to 12 MHz sectorial electronic ultraband S12 Philips transducer. The following echocardiographic parameters were determined: left ventricular end-systolic diameter (LVESD), left ventricular end diastolic diameter (LVEDD), left ventricular fractional shortening (LVFS), left ventricular anterior wall thickness (LVAWT), and left ventricular posterior wall thickness (LLVWT).\nas §2"}}, "note": "“Also recorded” adds a separate entry of the source. No end group written: not given here.", "data": [{"sequence": "DRVYIHPFH [angiotensin-(1-9)]", "values": [{"measurement": "plasma angiotensin-(1-9) levels", "setting": "[1]", "result": "6.8±0.8", "unit": "fmols/g"}, {"measurement": "ANF mRNA levels, reduction compared with infarcted rats", "setting": "[2]; RT-PCR", "result": 81, "unit": "%"}, {"measurement": "β-MHC protein levels in left ventricle, decrease compared with infarcted rats", "setting": "[2]; Western blot", "result": 48, "unit": "%"}, {"measurement": "increments in cardiomyocyte areas induced by IGF-1", "setting": "[3]; IGF-1 10 nM", "result": "significantly prevented"}, {"measurement": "increments in cardiomyocyte areas induced by NE", "setting": "[3]; NE 10 μM", "result": "significantly prevented"}, {"measurement": "cardiomyocyte cellular area increment compared with infarcted rats", "setting": "[4]", "result": "prevented cellular area increment"}, {"measurement": "cardiomyocyte perimeter, decrease with regard to infarcted rats", "setting": "[4]", "result": 31, "unit": "%"}, {"measurement": "CPVI", "setting": "[5]", "result": "8.0 ± 0.3", "unit": "mg"}, {"measurement": "FC", "setting": "[5]", "result": "without observing changes"}, {"measurement": "LVW", "setting": "[5]", "result": "significant reduction"}, {"measurement": "LVW/BW", "setting": "[5]", "result": "310 ± 16", "unit": "MV/100 g BW"}, {"measurement": "SBP", "setting": "[5]", "result": "without observing changes; also recorded: does not alter"}, {"measurement": "FC", "setting": "[5]; listed as Ang-(1-9)", "result": "259 ± 14", "unit": "beats/min"}, {"measurement": "LVW", "setting": "[5]; listed as Ang-(1-9)", "result": "810 ± 7", "unit": "mg"}, {"measurement": "SBP", "setting": "[5]; listed as Ang-(1-9)", "result": "112 ± 2", "unit": "mm Hg"}]}]}
